Assay [1] relates to LASV GP-pseudotyped vesicular stomatitis virus. As to the kind of experiment: microbe, parasite or virus in culture. It is filed as cell-based, Lassa virus. The settings on record: Vesicular stomatitis virus, HEK-293T, read-out: LASV VPEN (% activity).
In assay [2] the test system is EBOV GP-pseudotyped vesicular stomatitis virus. As to the kind of experiment: microbe, parasite or virus in culture. The class given is cell-based, Ebola virus. The settings on record: Zaire ebolavirus, HEK-293T, read-out: EBOV VPEN (% activity).
For assay [3], the system named is MARV GP-pseudotyped vesicular stomatitis virus. The experiment in a line: microbe, parasite or virus in culture. The class given is cell-based, Marburg virus. The settings on record: Vesicular stomatitis virus, HEK-293T, read-out: MASV VPEN (% activity).
A further assay concerns LASV. It is filed as cell-based, Lassa virus.
The next assay relates to EBOV. It is filed as cell-based, Ebola virus.
For another assay, the system named is Coxiella burnetii. As to the kind of experiment: microbe, parasite or virus in culture. The class given is cell-based. The settings on record: Vero, 168 h, read-out: Coxiella burnetii ICR (% protection).
The test system of assay [4] is Francisella tularensis. As to the kind of experiment: microbe, parasite or virus in culture. It is filed as cell-based. The settings on record: J774.A1, 15 h, read-out: Fransciella tularensis ICR (% protection).
For assay [5], the system named is Bacillus anthracis. As to the kind of experiment: microbe, parasite or virus in culture. The class given is cell-based. The settings on record: J774.A1, 15 h, read-out: Bacillus anthracis ICR (% protection).
For assay [6], the system named is Bacillus anthracis. It is filed as cell-based. The settings on record: 50 µM.
In assay [7] the test system is Francisella tularensis. It is filed as cell-based. The settings on record: 50 µM.

Read-outs that look alike come from different tables or passages of the source.

In the case of `CCOC(=O)C1=C(COCCN)NC(C)=C(C(=O)OC)C1c1ccccc1Cl` (stereo not shown) [Amlodipine], the inhibition at 10 µM in assay [1] (10 µM) was 61%; in assay [2] (10 µM) it was 93%; in [3] (10 µM), 93%.
Take `OC(CCN1CCCCC1)(c1ccccc1)C1CC2C=CC1C2` (stereo not shown) [Biperiden]: in the assay with LASV (50 µM), the “LASV VR” value is given as “−”. Moreover, the inhibition at 50 µM in assay [1] came to 27%; in [2], 98%; in [3], 89%. Also, the “EBOV VR” value with EBOV (50 µM) is given as “−”.
With `CC(C(=O)O)c1ccc2c(c1)[nH]c1ccc(Cl)cc12` (stereo not shown) [Carprofen], the “LASV VR” value in the assay on LASV (10 µM) is listed as “−”. For the same compound, the inhibition at 10 µM in assay [1] (10 µM) came to 50%; in [2] (10 µM) it was 94%; in assay [3] (10 µM), 88%. Further, the “EBOV VR” value in the assay on EBOV (10 µM) is “−”.
As to `CCC[C@@H]1C[C@@H](C(=O)N[C@@H]([C@H]2O[C@H](SC)[C@H](O)[C@@H](O)[C@H]2O)[C@H](C)Cl)N(C)C1` [Clindamycin], the inhibition of growth at 50 µM in the assay on Coxiella burnetii is 0%. Also, the inhibition at 50 µM in the assay with Francisella tularensis [4] was 83%.
For the compound `CN(C)CC[C@@H](c1ccc(Br)cc1)c1ccccn1` [Dexbrompheniramine], the inhibition at 50 µM in [1] was found to be 74%; in assay [2] it was 85%; in [3], 80%.
In the case of `CCCCOc1cc(C(=O)NCCN(CC)CC)c2ccccc2n1` [Dibucaine], the results for the inhibition at 10 µM in [1] (10 µM), in [2] (10 µM) and in assay [3] (10 µM) were 49%, 99% and 93%, respectively. In addition, in the assay on EBOV (10 µM), the “EBOV VR” value was “−”.
For the compound `CCOC(=O)C1(c2ccccc2)CCN(CCC(C#N)(c2ccccc2)c2ccccc2)CC1` [Diphenoxylate], the inhibition at 50 µM in assay [1] was 83%; in [2], 96%; in assay [3], 95%. Also, the “EBOV VR” value in the assay on EBOV (50 µM) is recorded as “+”.
With `CN1CCC(OC(c2ccccc2)c2ccccc2)CC1` [Diphenylpyraline], the “LASV VR” value in the assay on LASV (50 µM) was “−”. Further, the inhibition at 50 µM in assay [1] worked out at 22%; in assay [2], 96%; in assay [3], 85%. The “EBOV VR” value in the assay on EBOV (50 µM) is given as “+”.
Consider `CNCC(O)c1ccc(OC(=O)C(C)(C)C)c(OC(=O)C(C)(C)C)c1` (stereo not shown) [Dipivefrin], for which the “LASV VR” value in the assay on LASV (50 µM) was “−”. Further, the inhibition at 50 µM turned out to be 90% in [1], 94% in assay [2] and 90% in assay [3]. Also, the “EBOV VR” value in the assay with EBOV (50 µM) is given as “−”.
In the case of `C[C@]12CC[C@@H]3c4ccc(O)cc4CC[C@H]3[C@@H]1CC[C@@H]2O` [Estradiol], the “LASV VR” value in the assay with LASV (10 µM) is “−”. Also, the inhibition at 10 µM in assay [1] (10 µM) turned out to be 50%; in assay [2] (10 µM), 93%; in assay [3] (10 µM), 98%. Further, the “EBOV VR” value with EBOV (10 µM) is “−”.
For the compound `CNCCC(Oc1ccc(C(F)(F)F)cc1)c1ccccc1` (stereo not shown) [Fluoxetine], in the assay on LASV (10 µM), the “LASV VR” value is reported as “−”. Also, the inhibition at 10 µM in assay [1] (10 µM) stood at 76%; in assay [2] (10 µM), 96%; in assay [3] (10 µM) it was 98%. In addition, in the assay with EBOV (10 µM), the “EBOV VR” value is listed as “−”.
With `CO/N=C1\CN(c2nc3c(cc2F)c(=O)c(C(=O)O)cn3C2CC2)CC1CN` (stereo not shown) [Gemifloxacin], the inhibition of growth at 50 µM in the assay with Coxiella burnetii was found to be 0%. Also, the inhibition at 50 µM with Bacillus anthracis [5] came out at 97%; with Francisella tularensis [4], 91%. The “Bacillus anthracis Broth (% protection)” value in the assay with Bacillus anthracis [6] was “−”. In the assay on Francisella tularensis [7], the “Fransciella tularensis Broth (% protection)” value is recorded as “−”.
On to `CN1CCC(=C2c3ccccc3CC(=O)c3sccc32)CC1` [Ketotifen], for which, in the assay on LASV (50 µM), the “LASV VR” value is given as “−”. Besides, the results for the inhibition at 50 µM in assay [1], in [2] and in [3] were 33%, 99% and 97%, respectively. Besides, the “EBOV VR” value with EBOV (50 µM) is recorded as “+”.
In the case of `CCC(=O)O[C@@](Cc1ccccc1)(c1ccccc1)[C@@H](C)CN(C)C` [Levopropoxyphene], the inhibition at 50 µM in [1] amounted to 79%; in [2], 98%; in [3], 89%.
With `CN(C)c1ccc(O)c2c1C[C@H]1C[C@H]3[C@H](N(C)C)C(O)=C(C(N)=O)C(=O)[C@@]3(O)C(O)=C1C2=O` [Minocycline], the inhibition of growth at 50 µM with Coxiella burnetii came out at 0%. Moreover, the inhibition at 50 µM is 95% in the assay with Bacillus anthracis [5] and 92% in the assay on Francisella tularensis [4]. The “Bacillus anthracis Broth (% protection)” value in the assay with Bacillus anthracis [6] is listed as “−”. Also, the “Fransciella tularensis Broth (% protection)” value with Francisella tularensis [7] was “−”.
For the compound `COc1c(C)c2c(c(O)c1C/C=C(\C)CCC(=O)OCCN1CCOCC1)C(=O)OC2` [Mycophenolate mofetil], the “LASV VR” value in the assay with LASV (50 µM) was “−”. Moreover, the inhibition at 50 µM in assay [1] was determined as 69%; in assay [2], 91%; in [3] it was 81%. For the same compound, in the assay with EBOV (50 µM), the “EBOV VR” value is “−”.
Consider `CCN[C@@H]1C[C@H](N)[C@@H](O[C@H]2OC(CN)=CC[C@H]2N)[C@H](O)[C@H]1O[C@H]1OC[C@](C)(O)[C@H](NC)[C@H]1O` [Netilmicin], for which, in the assay on Coxiella burnetii, the inhibition of growth at 50 µM was determined as 100%. Besides, the inhibition at 50 µM in the assay on Bacillus anthracis [5] is 98%; in the assay on Francisella tularensis [4], -2%. Moreover, the “Bacillus anthracis Broth (% protection)” value in the assay with Bacillus anthracis [6] is listed as “+”. Further, the “Fransciella tularensis Broth (% protection)” value with Francisella tularensis [7] is given as “+”.
With `CN1CCCN=C1COC(=O)C(O)(c1ccccc1)C1CCCCC1` (stereo not shown) [Oxyphencyclimine], in the assay on LASV (50 µM), the “LASV VR” value is listed as “−”. Also, the inhibition at 50 µM was 28% in assay [1], 95% in assay [2] and 89% in [3]. Also, in the assay on EBOV (50 µM), the “EBOV VR” value is “−”.
With `CN(C)[C@@H]1C(O)=C(C(N)=O)C(=O)[C@@]2(O)C(O)=C3C(=O)c4c(O)cccc4[C@@](C)(O)[C@H]3[C@H](O)[C@@H]12` [Oxytetracycline], the inhibition of growth at 50 µM in the assay on Coxiella burnetii amounted to 0%. Also, the values for the inhibition at 50 µM in the assay on Bacillus anthracis [5] and in the assay with Francisella tularensis [4] were 94% and 92%, respectively. For the same compound, in the assay on Bacillus anthracis [6], the “Bacillus anthracis Broth (% protection)” value was “+”. Further, the “Fransciella tularensis Broth (% protection)” value with Francisella tularensis [7] is on record as “+”.
As to `Fc1ccc([C@@H]2CCNC[C@H]2COc2ccc3c(c2)OCO3)cc1` [Paroxetine], in the assay on LASV (10 µM), the “LASV VR” value is “−”. Besides, the inhibition at 10 µM stood at 6% in assay [1] (10 µM), 98% in assay [2] (10 µM) and 89% in assay [3] (10 µM). The “EBOV VR” value in the assay on EBOV (10 µM) is “−”.
`CC(C)(C)NC[C@H](O)COc1ccccc1C1CCCC1` [Penbutolol]: the inhibition at 10 µM in assay [1] (10 µM) was 67%; in [2] (10 µM) it was 98%; in assay [3] (10 µM) it was 81%.
As for `CN1CCN(CCCN2c3ccccc3Sc3ccc(Cl)cc32)CC1` [Prochlorperazine], the figures for the inhibition at 10 µM in assay [1] (10 µM), in assay [2] (10 µM) and in [3] (10 µM) were 70%, 95% and 93%, respectively.
Turning to `CNCCCC1c2ccccc2C=Cc2ccccc21` [Protriptyline], the inhibition at 10 µM in assay [1] worked out at 28%; in [2] it was 83%; in assay [3] it was 80%.
On to `CN(C)[C@@H]1C(O)=C(C(N)=O)C(=O)[C@@]2(O)C(O)=C3C(=O)c4c(O)cccc4[C@@](C)(O)[C@H]3C[C@@H]12` [Tetracycline], for which the inhibition of growth at 50 µM in the assay with Coxiella burnetii is 0%. Moreover, the inhibition at 50 µM is 105% with Bacillus anthracis [5] and 103% in the assay on Francisella tularensis [4].
Turning to `CN(C)CCOc1ccc(/C(=C(/CCCl)c2ccccc2)c2ccccc2)cc1` [Toremifene], the inhibition at 10 µM in assay [1] (10 µM) was found to be 76%; in [2] (10 µM) it was 97%; in assay [3] (10 µM), 96%.
Turning to `OC(CCN1CCCCC1)(c1ccccc1)C1CCCCC1` (stereo not shown) [Trihexyphenidyl], the “LASV VR” value in the assay with LASV is listed as “−”. Besides, the inhibition at 10 µM in assay [1] came to 52%; in assay [2], 97%; in assay [3] it was 91%. The “EBOV VR” value in the assay with EBOV is recorded as “−”.

The values are drawn from paper PMC3618516, “A Systematic Screen of FDA-Approved Drugs for Inhibitors of Biological Threat Agents” (PLoS ONE, 2013).
